Data as given in ChEMBL document CHEMBL3091428, “Synthesis and initial biological evaluation of substituted 1-phenylamino-2-thio-4,5-dimethyl-1H-imidazole derivatives” (Bioorg Med Chem Lett, 2013).
Values after ≈ are worked out from the molar mass of the structure shown.

Experiments:
TK-10 = assay: Cytotoxicity against human TK10 cells assessed as cell growth after 48 hrs by SRB assay relative to control; assay type: functional
RXF 393 = assay: Cytotoxicity against human RXF393 cells assessed as cell growth after 48 hrs by SRB assay relative to control; assay type: functional
SN12C = assay: Cytotoxicity against human SN12C cells assessed as cell growth after 48 hrs by SRB assay relative to control; assay type: functional
CAKI-1 = assay: Cytotoxicity against human Caki1 cells assessed as cell growth after 48 hrs by SRB assay relative to control; assay type: functional
ACHN = assay: Cytotoxicity against human ACHN cells assessed as cell growth after 48 hrs by SRB assay relative to control; assay type: functional
[1] = Cytotoxicity against human NCI-ADR-RES cells assessed as cell growth after 48 hrs by SRB assay relative to control; assay type: functional
[2] = Cytotoxicity against human OVCAR5 cells assessed as cell growth after 48 hrs by SRB assay relative to control; assay type: functional, OVCAR-5
OVCAR-8 = assay: Cytotoxicity against human OVCAR8 cells assessed as cell growth after 48 hrs by SRB assay relative to control; assay type: functional
[3] = Cytotoxicity against human OVCAR4 cells assessed as cell growth after 48 hrs by SRB assay relative to control; assay type: functional, OVCAR-4
OVCAR-3 = assay: Cytotoxicity against human OVCAR3 cells assessed as cell growth after 48 hrs by SRB assay relative to control; assay type: functional
IGROV-1 = assay: Cytotoxicity against human IGROV1 cells assessed as cell growth after 48 hrs by SRB assay relative to control; assay type: functional
UACC-62 = assay: Cytotoxicity against human UACC62 cells assessed as cell growth after 48 hrs by SRB assay relative to control; assay type: functional
SK-MEL-5 = assay: Cytotoxicity against human SK-MEL-5 cells assessed as cell growth after 48 hrs by SRB assay relative to control; assay type: functional
[4] = Cytotoxicity against human UACC257 cells assessed as cell growth after 48 hrs by SRB assay relative to control; assay type: functional, UACC-257
SK-MEL-2 = assay: Cytotoxicity against human SK-MEL-2 cells assessed as cell growth after 48 hrs by SRB assay relative to control; assay type: functional
Malme-3M = assay: Cytotoxicity against human MALME-3M cells assessed as cell growth after 48 hrs by SRB assay relative to control; assay type: functional
SNB-75 = assay: Cytotoxicity against human SNB75 cells assessed as cell growth after 48 hrs by SRB assay relative to control; assay type: functional
SNB-19 = assay: Cytotoxicity against human SNB19 cells assessed as cell growth after 48 hrs by SRB assay relative to control; assay type: functional
SF-539 = assay: Cytotoxicity against human SF539 cells assessed as cell growth after 48 hrs by SRB assay relative to control; assay type: functional
SF-295 = assay: Cytotoxicity against human SF295 cells assessed as cell growth after 48 hrs by SRB assay relative to control; assay type: functional
SW-620 = assay: Cytotoxicity against human SW620 cells assessed as cell growth after 48 hrs by SRB assay relative to control; assay type: functional
KM12 = assay: Cytotoxicity against human KM12 cells assessed as cell growth after 48 hrs by SRB assay relative to control; assay type: functional
HT-29 = assay: Cytotoxicity against human HT-29 cells assessed as cell growth after 48 hrs by SRB assay relative to control; assay type: functional
HCC 2998 = assay: Cytotoxicity against human HCC2998 cells assessed as cell growth after 48 hrs by SRB assay relative to control; assay type: functional
COLO 205 = assay: Cytotoxicity against human COLO205 cells assessed as cell growth after 48 hrs by SRB assay relative to control; assay type: functional
NCI-H522 = assay: Cytotoxicity against human NCI-H522 cells assessed as cell growth after 48 hrs by SRB assay relative to control; assay type: functional
NCI-H322M = assay: Cytotoxicity against human NCI-H322M cells assessed as cell growth after 48 hrs by SRB assay relative to control; assay type: functional
NCI-H23 = assay: Cytotoxicity against human NCI-H23 cells assessed as cell growth after 48 hrs by SRB assay relative to control; assay type: functional
NCI-H226 = assay: Cytotoxicity against human NCI-H226 cells assessed as cell growth after 48 hrs by SRB assay relative to control; assay type: functional
HOP-92 = assay: Cytotoxicity against human HOP92 cells assessed as cell growth after 48 hrs by SRB assay relative to control; assay type: functional
SR = assay: Cytotoxicity against human SR cells assessed as cell growth after 48 hrs by SRB assay relative to control; assay type: functional
RPMI-8226 = assay: Cytotoxicity against human RPMI8226 cells assessed as cell growth after 48 hrs by SRB assay relative to control; assay type: functional
K562 = assay: Cytotoxicity against human K562 cells assessed as cell growth after 48 hrs by SRB assay relative to control; assay type: functional
HL-60(TB) = assay: Cytotoxicity against human HL-60(TB) cells assessed as cell growth after 48 hrs by SRB assay relative to control; assay type: functional
Nakaseomyces glabratus = assay: Antimicrobial activity against Candida glabrata ATCC 90030 after 24 hrs by broth microdilution method; assay type: functional; settings: ATCC 90030, 24 h
Candida albicans = assay: Antimicrobial activity against Candida albicans ATCC 90028 after 24 hrs by broth microdilution method; assay type: functional; settings: ATCC 90028, 24 h
Staphylococcus aureus = assay: Antimicrobial activity against Staphylococcus aureus ATCC 25923 after 24 hrs by broth microdilution method; assay type: functional; settings: ATCC 25923, 24 h
Enterococcus faecalis [5] = assay: Antimicrobial activity against Enterococcus faecalis ATCC 51299 after 24 hrs by broth microdilution method; assay type: functional; settings: ATCC 51299, 24 h
Enterococcus faecalis [6] = assay: Antimicrobial activity against Enterococcus faecalis ATCC 29212 after 24 hrs by broth microdilution method; assay type: functional; settings: ATCC 29212, 24 h
Pseudomonas aeruginosa = assay: Antimicrobial activity against Pseudomonas aeruginosa ATCC 27853 after 24 hrs by broth microdilution method; assay type: functional; settings: ATCC 27853, 24 h
Klebsiella pneumoniae = assay: Antimicrobial activity against Klebsiella pneumoniae ATCC 13883 after 24 hrs by broth microdilution method; assay type: functional; settings: ATCC 13883, 24 h
Escherichia coli = assay: Antimicrobial activity against Escherichia coli ATCC 25922 after 24 hrs by broth microdilution method; assay type: functional; settings: ATCC 25922, 24 h
T47D = assay: Cytotoxicity against human T47D cells assessed as cell growth after 48 hrs by SRB assay relative to control; assay type: functional
BT-549 = assay: Cytotoxicity against human BT549 cells assessed as cell growth after 48 hrs by SRB assay relative to control; assay type: functional
MDA-MB-231 = assay: Cytotoxicity against human MDA-MB-231 cells assessed as cell growth after 48 hrs by SRB assay relative to control; assay type: functional
MCF7 = assay: Cytotoxicity against human MCF7 cells assessed as cell growth after 48 hrs by SRB assay relative to control; assay type: functional
DU-145 = assay: Cytotoxicity against human DU145 cells assessed as cell growth after 48 hrs by SRB assay relative to control; assay type: functional
PC-3 = assay: Cytotoxicity against human PC3 cells assessed as cell growth after 48 hrs by SRB assay relative to control; assay type: functional
[7] = Cytotoxicity against human UO31 cells assessed as cell growth after 48 hrs by SRB assay relative to control; assay type: functional, UO-31

Cc1nc(SCC(=O)c2ccccc2)n(Nc2ccccc2)c1C
Activity (TK-10): 127.6% | Activity (RXF 393): 103.1% | Activity (SN12C): 99.9% | Activity (CAKI-1): 88.11% | Activity (ACHN): 106.6% | Activity [1]: 96.87% | Activity [2]: 109.7% | Activity (OVCAR-8): 99.29% | Activity [3]: 105.2% | Activity (OVCAR-3): 109.4% | Activity (IGROV-1): 98.59% | Activity (UACC-62): 102.6% | Activity (SK-MEL-5): 99.8% | Activity [4]: 97.59% | Activity (SK-MEL-2): 97.16% | Activity (Malme-3M): 103.5% | Activity (SNB-75): 108.2% | Activity (SNB-19): 98.31% | Activity (SF-539): 104.4% | Activity (SF-295): 86.98% | Activity (SW-620): 109.1% | Activity (KM12): 104.6% | Activity (HT-29): 97.65% | Activity (HCC 2998): 110.5% | Activity (COLO 205): 110.9% | Activity (NCI-H522): 81.35% | Activity (NCI-H322M): 90.31% | Activity (NCI-H23): 93.43% | Activity (NCI-H226): 99.07% | Activity (HOP-92): 91.79% | Activity (SR): 82.35% | Activity (RPMI-8226): 102.2% | Activity (K562): 89.68% | Activity (HL-60(TB)): 91% | MIC (Nakaseomyces glabratus): 800 µg/mL (≈ 2370 µM) | MIC (Candida albicans): 400 µg/mL (≈ 1190 µM) | MIC (Staphylococcus aureus): 800 µg/mL (≈ 2370 µM) | MIC (Enterococcus faecalis [5]): 800 µg/mL (≈ 2370 µM) | MIC (Enterococcus faecalis [6]): 800 µg/mL (≈ 2370 µM) | MIC (Pseudomonas aeruginosa): 200 µg/mL (≈ 593 µM) | MIC (Klebsiella pneumoniae): 800 µg/mL (≈ 2370 µM) | MIC (Escherichia coli): 800 µg/mL (≈ 2370 µM) | Activity (T47D): 85.54% | Activity (BT-549): 88.93% | Activity (MDA-MB-231): 98.84% | Activity (MCF7): 96.9% | Activity (DU-145): 109.3% | Activity (PC-3): 102% | Activity [7]: 68.6%
